Reference: PubChem BioAssay (NCI)
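Where inhibition never reached the appropriate level, the endpoint shown equals the highest concentration tested. Otherwise, values were interpolated linearly from a five-concentration, 48-hour dose response in 96-well plates. Here, GI50 denotes the concentration required for 50% inhibition of growth. TGI marks complete inhibition of growth.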

Tests used:
Assay in all cases: NCI-60 cell line screen, 48 h
MDA-MB-468 breast = system: MDA-MB-468 breast
DU-145 prostate = system: DU-145 prostate
MALME-3M melanoma = system: MALME-3M melanoma
UACC-62 melanoma = system: UACC-62 melanoma
COLO 205 colon = system: COLO 205 colon
MDA-MB-435 = system: MDA-MB-435
SK-MEL-2 melanoma = system: SK-MEL-2 melanoma
SW-620 colon = system: SW-620 colon
SN12C renal = system: SN12C renal
M14 melanoma = system: M14 melanoma
LOX IMVI melanoma = system: LOX IMVI melanoma
RPMI-8226 leukemia = system: RPMI-8226 leukemia
786-0 renal = system: 786-0 renal
CAKI-1 renal = system: CAKI-1 renal
HOP-62 NSCLC = system: HOP-62 NSCLC
KM12 colon = system: KM12 colon
SK-MEL-5 melanoma = system: SK-MEL-5 melanoma
RXF 393 renal = system: RXF 393 renal
MDA-MB-231 breast = system: MDA-MB-231 breast
PC-3 prostate = system: PC-3 prostate
MCF7 breast = system: MCF7 breast
TK-10 renal = system: TK-10 renal
HCT-15 colon = system: HCT-15 colon
T-47D breast = system: T-47D breast
ACHN renal = system: ACHN renal
NCI-H522 lung = system: NCI-H522 lung
SF-539 CNS = system: SF-539 CNS
SF-268 CNS = system: SF-268 CNS
SNB-75 CNS = system: SNB-75 CNS
OVCAR-3 ovarian = system: OVCAR-3 ovarian
HOP-92 NSCLC = system: HOP-92 NSCLC
HCT-116 colon = system: HCT-116 colon
HS 578T breast = system: HS 578T breast
U251 CNS = system: U251 CNS
OVCAR-4 ovarian = system: OVCAR-4 ovarian
HL-60(TB) leukemia = system: HL-60(TB) leukemia
HCC-2998 colon = system: HCC-2998 colon
A549 NSCLC = system: A549 NSCLC
SK-OV-3 ovarian = system: SK-OV-3 ovarian
BT-549 breast = system: BT-549 breast
OVCAR-5 ovarian = system: OVCAR-5 ovarian
HT29 colon = system: HT29 colon
MOLT-4 leukemia = system: MOLT-4 leukemia
UACC-257 melanoma = system: UACC-257 melanoma
NCI-H226 lung = system: NCI-H226 lung
NCI-H23 lung = system: NCI-H23 lung
SK-MEL-28 melanoma = system: SK-MEL-28 melanoma
K-562 leukemia = system: K-562 leukemia
NCI-H460 lung = system: NCI-H460 lung
OVCAR-8 ovarian = system: OVCAR-8 ovarian
SNB-19 CNS = system: SNB-19 CNS
A498 renal = system: A498 renal
SR leukemia = system: SR leukemia
SF-295 CNS = system: SF-295 CNS
EKVX NSCLC = system: EKVX NSCLC

Cc1cc(O)c(C2=NN(c3ccc(S(N)(=O)=O)cc3)C(c3ccc(N(C)C)cc3)C2)c(C)c1Cl (stereo not drawn)
GI50 (MDA-MB-468 breast): 17.1 µM
TGI (MDA-MB-468 breast): 33.8 µM

CN1C(=O)[C@@H](NC(=O)[C@H](CCC(F)(F)F)[C@H](CCC(F)(F)F)C(N)=O)N=C(c2ccccc2)c2ccccc21
GI50 (MDA-MB-468 breast): 21.2 µM
TGI (MDA-MB-468 breast): > 100 µM

COC1=CC(=O)C(OC)=C(OC)C1=O
GI50 (MDA-MB-468 breast): 1.61 µM
TGI (MDA-MB-468 breast): 3.16 µM

CCn1cc(-c2ccnc3[nH]ccc23)c(-c2cccc(NC(=O)Nc3ccc(OCc4ccccc4)cc3)c2)n1
GI50 (MDA-MB-468 breast): 18.2 µM
TGI (MDA-MB-468 breast): > 25 µM

COC(=O)Nc1nc2ccc(C(=O)c3ccc(N(C)C4COC4)cc3)cc2[nH]1
GI50 (MDA-MB-468 breast): 0.224 µM
TGI (MDA-MB-468 breast): > 100 µM

COc1cc(OC)c(/C=C/S(=O)(=O)Cc2ccc(OC)c(NC(=O)CCC(=O)NO)c2)c(OC)c1
GI50 (MDA-MB-468 breast): 0.0549 µM
TGI (MDA-MB-468 breast): > 100 µM

Cc1cc2cn3c4ccc(O)cc4[nH]c(=O)c3c2cc1C
GI50 (MDA-MB-468 breast): 0.178 µM
TGI (MDA-MB-468 breast): 0.772 µM

CS(=O)(=O)CCNCc1ccc(-c2ccc3ncnc(Nc4ccc(OCc5cccc(F)c5)c(C(F)(F)F)c4)c3c2)o1
GI50 (MDA-MB-468 breast): 1.42 µM
TGI (MDA-MB-468 breast): 6.09 µM

O=C(O)CCC/C=C\C[C@H]1C=CC(=O)/C1=C/C[C@@H](O)CCc1cccc(C(F)(F)F)c1
GI50 (MDA-MB-468 breast): 1.24 µM
TGI (MDA-MB-468 breast): 3.27 µM

Cc1cccc(/C=C/C(=O)Nc2ncc(Cc3cccc(C)c3)s2)c1
GI50 (MDA-MB-468 breast): 3.77 µM
TGI (MDA-MB-468 breast): > 100 µM

O=c1c(O)cccc2cc(O)c(O)c(O)c12
GI50 (MDA-MB-468 breast): 47.6 µM
TGI (MDA-MB-468 breast): > 100 µM

O=C(NCCCNc1cc(-c2cn(-c3ccccc3)nc2-c2cccc(O)c2)ccn1)Nc1ccc(F)cc1
GI50 (MDA-MB-468 breast): 1.18 µM
TGI (MDA-MB-468 breast): 4.66 µM

Nc1ccccc1NC(=O)c1ccc(CCCC(=O)Nc2ccc(C3CC3N)cc2)cc1 (stereo not drawn)
GI50 (MDA-MB-468 breast): 1.62 µM
TGI (MDA-MB-468 breast): 4.53 µM

CN1CCN(c2cc(C(=O)Nc3cc4cc(-c5cnn(C)c5)ccc4cn3)ccn2)CC1
GI50 (MDA-MB-468 breast): 0.0348 µM
TGI (MDA-MB-468 breast): 0.286 µM

COc1cc(C2CC(c3ccc(Cl)cc3)=Nc3c(N)nc(N)nc3N2)ccc1Oc1nc(Nc2ccc(F)cc2)nc(N(C)C)n1 (stereo not drawn)
GI50 (DU-145 prostate): > 100 µM
TGI (DU-145 prostate): > 100 µM
GI50 (MALME-3M melanoma): > 100 µM
TGI (MALME-3M melanoma): > 100 µM
GI50 (UACC-62 melanoma): > 100 µM
TGI (UACC-62 melanoma): > 100 µM
GI50 (MDA-MB-468 breast): 17.8 µM
TGI (MDA-MB-468 breast): > 100 µM
GI50 (COLO 205 colon): > 100 µM
TGI (COLO 205 colon): > 100 µM
GI50 (MDA-MB-435): > 100 µM
TGI (MDA-MB-435): > 100 µM
GI50 (SK-MEL-2 melanoma): > 100 µM
TGI (SK-MEL-2 melanoma): > 100 µM
GI50 (SW-620 colon): > 100 µM
TGI (SW-620 colon): > 100 µM
GI50 (SN12C renal): > 100 µM
TGI (SN12C renal): > 100 µM
GI50 (M14 melanoma): > 100 µM
TGI (M14 melanoma): > 100 µM
GI50 (LOX IMVI melanoma): 47.8 µM
TGI (LOX IMVI melanoma): > 100 µM
GI50 (RPMI-8226 leukemia): 26.4 µM
TGI (RPMI-8226 leukemia): > 100 µM
GI50 (786-0 renal): > 100 µM
TGI (786-0 renal): > 100 µM
GI50 (CAKI-1 renal): 3.38 µM
TGI (CAKI-1 renal): > 100 µM
GI50 (HOP-62 NSCLC): > 100 µM
TGI (HOP-62 NSCLC): > 100 µM
GI50 (KM12 colon): 40.1 µM
TGI (KM12 colon): > 100 µM
GI50 (SK-MEL-5 melanoma): 17.2 µM
TGI (SK-MEL-5 melanoma): 52 µM
GI50 (RXF 393 renal): 2.46 µM
TGI (RXF 393 renal): > 100 µM
GI50 (MDA-MB-231 breast): 6.73 µM
TGI (MDA-MB-231 breast): > 100 µM
GI50 (PC-3 prostate): 6.16 µM
TGI (PC-3 prostate): > 100 µM
GI50 (MCF7 breast): 9.91 µM
TGI (MCF7 breast): > 100 µM
GI50 (TK-10 renal): > 100 µM
TGI (TK-10 renal): > 100 µM
GI50 (HCT-15 colon): 76.6 µM
TGI (HCT-15 colon): > 100 µM
GI50 (T-47D breast): > 100 µM
TGI (T-47D breast): > 100 µM
GI50 (ACHN renal): > 100 µM
TGI (ACHN renal): > 100 µM
GI50 (NCI-H522 lung): > 100 µM
TGI (NCI-H522 lung): > 100 µM
GI50 (SF-539 CNS): > 100 µM
TGI (SF-539 CNS): > 100 µM
GI50 (SF-268 CNS): > 100 µM
TGI (SF-268 CNS): > 100 µM
GI50 (SNB-75 CNS): 3.24 µM
TGI (SNB-75 CNS): > 100 µM
GI50 (OVCAR-3 ovarian): > 100 µM
TGI (OVCAR-3 ovarian): > 100 µM
GI50 (HOP-92 NSCLC): 3 µM
TGI (HOP-92 NSCLC): > 100 µM
GI50 (HCT-116 colon): 12.5 µM
TGI (HCT-116 colon): > 100 µM
GI50 (HS 578T breast): 84.8 µM
TGI (HS 578T breast): > 100 µM
GI50 (U251 CNS): > 100 µM
TGI (U251 CNS): > 100 µM
GI50 (OVCAR-4 ovarian): 18.9 µM
TGI (OVCAR-4 ovarian): > 100 µM
GI50 (HL-60(TB) leukemia): 44.7 µM
TGI (HL-60(TB) leukemia): > 100 µM
GI50 (HCC-2998 colon): 45.3 µM
TGI (HCC-2998 colon): > 100 µM
GI50 (A549 NSCLC): > 100 µM
TGI (A549 NSCLC): > 100 µM
GI50 (SK-OV-3 ovarian): > 100 µM
TGI (SK-OV-3 ovarian): > 100 µM
GI50 (BT-549 breast): 35.5 µM
TGI (BT-549 breast): > 100 µM
GI50 (OVCAR-5 ovarian): > 100 µM
TGI (OVCAR-5 ovarian): > 100 µM
GI50 (HT29 colon): 29.4 µM
TGI (HT29 colon): > 100 µM
GI50 (MOLT-4 leukemia): 8.54 µM
TGI (MOLT-4 leukemia): > 100 µM
GI50 (UACC-257 melanoma): > 100 µM
TGI (UACC-257 melanoma): > 100 µM
GI50 (NCI-H226 lung): > 100 µM
TGI (NCI-H226 lung): > 100 µM
GI50 (NCI-H23 lung): > 100 µM
TGI (NCI-H23 lung): > 100 µM
GI50 (SK-MEL-28 melanoma): > 100 µM
TGI (SK-MEL-28 melanoma): > 100 µM
GI50 (K-562 leukemia): 4.5 µM
TGI (K-562 leukemia): > 100 µM
GI50 (NCI-H460 lung): 42.3 µM
TGI (NCI-H460 lung): > 100 µM
GI50 (OVCAR-8 ovarian): > 100 µM
TGI (OVCAR-8 ovarian): > 100 µM
GI50 (SNB-19 CNS): > 100 µM
TGI (SNB-19 CNS): > 100 µM
GI50 (A498 renal): > 100 µM
TGI (A498 renal): > 100 µM
GI50 (SR leukemia): 3.41 µM
TGI (SR leukemia): > 100 µM
GI50 (SF-295 CNS): > 100 µM
TGI (SF-295 CNS): > 100 µM
GI50 (EKVX NSCLC): > 100 µM
TGI (EKVX NSCLC): > 100 µM
